According to patent US20260306527A1, “PRMT INHIBITOR COMPOUNDS AND THE USES THEREOF” (Purdue Research Foundation, priority 2023, published 2026):

Columns and labels:
PRMT1 [1] = target: T1, PRMT1 (Homo sapiens, UniProt Q99873); test: SAHH-coupled fluorescence assay, inhibition of PRMT1; assay type: biochemical
T1 construct: made in house
How it was run: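 PRMT1 (0.1 μM) was run with 10 μM AdoMet, 5 μM SAHH and 10 μM ThioGlo4 in 2.5 mM HEPES pH 7.0, 25 mM NaCl, 25 μM EDTA, 50 μM TCEP and 0.01% Triton X-100. Fluorescence (ex 400/em 465 nm) was monitored for 15 min. Assays were done in duplicate.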

PRMT3 [2] = test: SAHH-coupled fluorescence assay, inhibition of PRMT3; assay type: biochemical; conditions: read-out: IC50 [µM] | PRMT3
How it was run: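 Coupled SAHH/ThioGlo4 fluorescence read-out (ex 380 nm, em 505 nm) of PRMT3 (0.25 μM) methylation with 30 μM AdoMet and 5 μM SAHH. Buffer was 20 mM Tris pH 7.5 with 0.01% Triton X-100. Run in duplicate.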

PRMT1 [3] = target: T1, PRMT1; test: selectivity of YD1113/YD1290 on PRMT panel, PRMT1; assay type: biochemical; conditions: 10 μM; PRMT panel
Procedure: (§1) The selectivity of compounds YD1113 and YD1290 on PRMTs were performed by Reaction Biology Corp.
Next, the selectivity of YD1113 was investigated on a panel of PRMTs at 10 μM.
After validating the benzyl urea moiety as an unconventional homocysteine mimic of SAH for PRMTs, it was hypothesized that incorporating the benzyl urea moiety into the original pan PRMT inhibitor II757 would build a potent bisubstrate inhibitor. […] To enable a stable tri-substitution, the sulfur atom with a nitrogen atom was replaced. YD1290 was synthesized following the reported methods 9, 15 and tested in a radioactivity assay for PRMTs (FIG. 6b).

PRMT3/4/5 = test: inhibition of PRMT3/4/5 (summary); assay type: biochemical; conditions: range over PRMT3/4/5
Procedure: as §1

PRMT1 [4] = target: T1, PRMT1; test: thermal shift assay PRMT1; assay type: binding; conditions: 100 μM compound, 10 μM protein
Procedure: (§2) The fluorescence-based thermal shift assay was performed using a StepOne plus qPCR instrument (Thermal Fisher). For PRMT1, 10 μM of protein was mixed with 2× sypro orange and DMSO, or 100 μM SAM, or 100 μM YD1113, or 100 μM YD1290 in a buffer consisting of 2.5 mM HEPES (pH=7.0), 25 mM NaCl, 25 μM EDTA, 50 μM TCEP, 0.01% Triton X-100. For PRMT3, 20 μM of protein was mixed with 2× sypro orange and DMSO, or 100 μM SAM, or 100 μM YD1113, or 100 μM YD1290 in a buffer consisting of 20 mM Tris (pH=7.5), 0.01% Triton X-100. For PRMT4, 20 μM of protein was mixed with 2× sypro orange and DMSO, or 100 μM SAM, or 100 μM YD1113, or 100 μM YD1290 in a buffer consisting of 20 mM bicine (pH=8.5), 0.01% Triton X-100. All samples were heated from 25° C. to 75° C. at an increased rate of 0.5° C. per minute. Protein denaturation was monitored by the increased fluorescence signal of Sypro Orange, which captures exposed hydrophobic residues during thermal unfolding. The recorded curves were analyzed by the software StepOne plus and plotted in GraphPad Prism 8 software.
(§3) Next, the thermal shift assay (TSA) was conducted as an orthogonal method to examine the effects of YD1290 on the thermal stability of PRMT1, 3, and 4 (Figure S1).

PRMT3 [5] = target: PRMT3 (Homo sapiens, UniProt O60678); test: thermal shift assay PRMT3; assay type: binding; design: PRMT3 (residues 211-531) was cloned into the pET28a-MHL expression vector; tag of the pET28a-MHL vector (not described); made in house; host or cells: Escherichia coli BL21(DE3); conditions: 100 μM compound, 20 μM protein
Procedure: as §2, §3

T1 sequence (Q99873 whole entry, species assumed): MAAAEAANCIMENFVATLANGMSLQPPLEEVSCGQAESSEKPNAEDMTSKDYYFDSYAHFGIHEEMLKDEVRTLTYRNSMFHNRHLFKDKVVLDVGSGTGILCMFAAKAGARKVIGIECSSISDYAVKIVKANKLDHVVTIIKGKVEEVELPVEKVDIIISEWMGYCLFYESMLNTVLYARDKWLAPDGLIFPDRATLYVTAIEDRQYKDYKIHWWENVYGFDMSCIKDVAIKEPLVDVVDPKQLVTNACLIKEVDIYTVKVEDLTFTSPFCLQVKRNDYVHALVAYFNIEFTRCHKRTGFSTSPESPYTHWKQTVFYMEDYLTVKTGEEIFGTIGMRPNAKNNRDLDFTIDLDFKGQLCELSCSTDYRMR
Sequence of PRMT3 (Homo sapiens, UniProt O60678) (O60678 211-531): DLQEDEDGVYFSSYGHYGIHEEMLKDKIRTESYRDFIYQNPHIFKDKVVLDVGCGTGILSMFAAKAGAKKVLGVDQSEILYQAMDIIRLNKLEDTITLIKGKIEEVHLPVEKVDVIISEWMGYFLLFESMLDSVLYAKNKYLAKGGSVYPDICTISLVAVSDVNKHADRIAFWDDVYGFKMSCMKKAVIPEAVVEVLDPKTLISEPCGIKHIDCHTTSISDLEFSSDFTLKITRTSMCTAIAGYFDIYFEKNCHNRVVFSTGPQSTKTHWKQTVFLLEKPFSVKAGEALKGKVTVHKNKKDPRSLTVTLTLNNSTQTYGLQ

Nc1ncnc2c1ncn2[C@@H]1O[C@H](CSCCNC(=O)NCc2ccccc2)[C@@H](O)[C@H]1O [Compound 7a, 1-(2-((((2S,3S,4R,5R)-5-(6-amino-9H-purin-9-yl)-3,4-dihydroxytetrahydrofuran-2-yl)methyl)thio)ethyl)-3-benzylurea]
inhibition at 10 µM (PRMT1 [1]): 30% | IC50 (PRMT3 [2]): 0.52 ± 0.07 µM | inhibition at 10 µM (PRMT1 [3]): < 35% | IC50 (PRMT3/4/5): 138 to 351 nM | ΔTm at 100 µM (PRMT1 [4]): 0.6 °C | ΔTm at 100 µM (PRMT3 [5]): 5.8 °C
